Laboratory results from US20100160408A1, “VILDAGLIPTIN FOR TREATING GENERAL PERIPHERAL NEUROPATHIES” (priority 2004, published 2010).

Key:
aged rats [1] = assay: Passive avoidance learning test in aged rats; assay type: in vivo; settings: repeated oral administration, vildagliptin 3 mg/kg and/or donepezil 0.3 mg/kg, test started on day 14 of treatment, versus control group
Description: (§1) The ameliorative effect of vildagliptin or the combined use of vildagliptin with the compounds having cholinesterase inhibitory activity on learning deficits is investigated in aged rats.
(§2) Methods Male (3 to 27 months old) rats of transgenic strain are used. The aged rats are divided into the following four groups (the active ingredient dosage can be adapted by the person skilled in the art).
(§3) 1) Control group: Repeated administration of placebo pill.
(§4) 2) Vildagliptin group: Repeated oral administration of vildagliptin 3 mg/kg.
(§5) Passive avoidance learning test is started on day 14 of treatment, and Morris water maze learning test on day 20 of treatment.
(§6) On each day of experiment, vildagliptin arid/or a cholinesterase inhibitor are administered 30 minutes and 1 hour, respectively, before initiation of the trial.
Passive Avoidance Learning: The passive avoidance learning test is performed using a chamber consisting of light and dark compartments. […] After a mouse moves to the dark compartment, the mouse is kept there for about 10 seconds with the door closed. One to two hours after the habituation trial, acquisition trial is performed. […]
In each trial, the latency from opening of the slide door until the animal moved to the dark compartment (step-through latency) is measured.

aged rats [2] = assay: Morris water maze learning test in aged rats; assay type: in vivo; settings: repeated oral administration, vildagliptin 3 mg/kg and/or donepezil 0.3 mg/kg, test started on day 20 of treatment, versus control group
Description: as §1, §2, §3, §4, §5, §6
Morris Water Maze Learning Same animals used in the passive avoidance test are subjected for the water maze task. However, some rats can not swim well in the water tank, thus they are excluded in the water maze task.
In pretraining which is performed for swimming training and motivation for escaping from water, four trials are performed using a water bath, 80 cm in diameter, in a condition that the platform is visible. […]

N#C[C@@H]1CCCN1C(=O)CNC12CC3CC(CC(O)(C3)C1)C2 [vildagliptin, (S)-1-[(3-hydroxy-1-adamantyl)amino]acetyl-2-cyano-pyrrolidine]
learning deficit in passive avoidance learning (step-through latency / avoidance time) (aged rats [1]): significant improvement of the learning deficit
water maze learning deficit (latency to find platform submerged in the water) (aged rats [2]): significant improvement in water maze learning deficit
